Test results as given in publication PMC11436758, “Computer-aided drug design to generate a unique antibiotic family” (Nature Communications, 2024).
Values after ≈ are worked out from the molar mass of the structure shown.

Assays:
Type in all cases: cell-based
[1] = test system: S. aureus (VISA); test: MIC, clinical and laboratory strains
Procedure: (§1) The medium employed for the assay was Mueller Hinton II Broth (MHB II; Becton-Dickinson, Sparks, MD, USA). Agar plates used for the organisms were trypticase soy agar plus 5% sheep blood (BD; Sparks, MD, USA). MIC assay plates were prepared using the CLSI broth microdilution procedure. Automated liquid handlers (Multidrop 384, Biomek 2000 and Biomek FX) were used to conduct serial dilutions and liquid transfers. A standardized inoculum of each organism was prepared per CLSI methods. Suspensions were prepared to equal a 0.5 McFarland standard, followed by a 1:20 dilution in test media. The inocula were dispensed into sterile reservoirs divided by length (Beckman Colter) and the Biomek 2000 was used to inoculate the plates. Daughter plates were placed on the Biomek 2000 work surface in reverse orientation so that inoculation took place from low to high drug concentration. The Biomek 2000 delivered 10 μL of the diluted suspension into each well. These inoculations yielded a final cell concentration in the daughter plates of ~5 × 10^5 colony-forming units/mL in each well. The wells of the daughter plates ultimately contained 185 μL of broth, 5 μL of drug solution, and 10 μL of bacterial inoculum. Plates were covered with a sterile lid on the top plate, placed in plastic bags, and incubated at 35 °C for ~18 h. The microplates were viewed from the bottom using a plate viewer and the MIC was read. The MIC was recorded as the lowest concentration of drug that inhibited visible growth of the organism.

[2] = test system: S. aureus (MSSA); test: MIC, clinical and laboratory strains
Procedure: as §1

[3] = test system: S. aureus (MRSA); test: MIC, clinical and laboratory strains
Procedure: as §1

[4] = test system: 102 ATCC strains and clinical isolates of Staphylococcus, Streptomyces, and Enterococcus; test: MIC panel summary over all strains; conditions: of 102 strains
Procedure: We also sought to determine if DNM0547 was bacteriostatic or bactericidal. Time kill experiments were carried out using increasing doses of DNM0547 against two different strains of MRSA.
as §1

Q: How did the MIC ([1]; S. aureus (VISA) 1724) turn out when `CN[C@H](CC(C)C)C(=O)N[C@H]1C(=O)N[C@@H](CC(N)=O)C(=O)N[C@H]2C(=O)N[C@H]3C(=O)N[C@H](C(=O)N[C@H](C(=O)O)c4cc(O)cc(O)c4-c4cc3ccc4O)[C@H](O)c3ccc(c(Cl)c3)Oc3cc2cc(c3O[C@@H]2O[C@H](CO)[C@@H](O)[C@H](O)[C@H]2O[C@H]2C[C@](C)(N)[C@H](O)[C@H](C)O2)Oc2ccc(cc2Cl)[C@H]1O` [vancomycin] was run?
A: 4 µg/mL (≈ 2.76 µM)

Q: And the MIC ([1]; S. aureus (VISA) 2012)?
A: 8 µg/mL (≈ 5.52 µM)

Q: What about the MIC ([1]; S. aureus (VISA) 2013) of the same molecule?
A: 4 µg/mL (≈ 2.76 µM)

Q: And the MIC ([1]; S. aureus (VISA) 2014)?
A: 4 µg/mL (≈ 2.76 µM)

Q: And the MIC ([1]; S. aureus (VISA) 2015)?
A: 4 µg/mL (≈ 2.76 µM)

Q: What about the MIC ([1]; S. aureus (VISA) 2016) of the same molecule?
A: 4 µg/mL (≈ 2.76 µM)

Q: And the MIC ([1]; S. aureus (VISA) 2017)?
A: 8 µg/mL (≈ 5.52 µM)

Q: What about the MIC ([1]; S. aureus (VISA) 2018) of the same molecule?
A: 4 µg/mL (≈ 2.76 µM)

Q: What about the MIC ([1]; S. aureus (VISA) 2019) of the same molecule?
A: 4 µg/mL (≈ 2.76 µM)

Q: What about the MIC ([1]; S. aureus (VISA) 2123) of the same molecule?
A: 8 µg/mL (≈ 5.52 µM)

Q: What about the MIC ([1]; S. aureus (VISA) NRS1/1723) of the same molecule?
A: 8 µg/mL (≈ 5.52 µM)

Q: What about the MIC ([2]; S. aureus (MSSA) 2127) of the same molecule?
A: 1 µg/mL (≈ 0.69 µM)

Q: And the MIC ([2]; S. aureus (MSSA) 6167)?
A: 0.5 µg/mL (≈ 0.345 µM)

Q: And the MIC ([2]; S. aureus (MSSA) 6168)?
A: 0.5 µg/mL (≈ 0.345 µM)

Q: And the MIC ([2]; S. aureus (MSSA) 6170)?
A: 0.5 µg/mL (≈ 0.345 µM)

Q: And the MIC ([2]; S. aureus (MSSA) 6316)?
A: 1 µg/mL (≈ 0.69 µM)

Q: And the MIC ([2]; S. aureus (MSSA) 6317)?
A: 0.5 µg/mL (≈ 0.345 µM)

Q: What about the MIC ([2]; S. aureus (MSSA) 6318) of the same molecule?
A: 0.5 µg/mL (≈ 0.345 µM)

Q: What about the MIC ([2]; S. aureus (MSSA) 6499) of the same molecule?
A: 0.5 µg/mL (≈ 0.345 µM)

Q: What about the MIC ([2]; S. aureus (MSSA) 6500) of the same molecule?
A: 0.5 µg/mL (≈ 0.345 µM)

Q: And the MIC ([2]; S. aureus (MSSA) 6502)?
A: 0.5 µg/mL (≈ 0.345 µM)

Q: And the MIC ([3]; S. aureus (MRSA) 2167)?
A: 0.5 µg/mL (≈ 0.345 µM)

Q: And the MIC ([3]; S. aureus (MRSA) 2168)?
A: 0.5 µg/mL (≈ 0.345 µM)

Q: What about the MIC ([3]; S. aureus (MRSA) 2169) of the same molecule?
A: 1 µg/mL (≈ 0.69 µM)

Q: And the MIC ([3]; S. aureus (MRSA) 2170)?
A: 0.5 µg/mL (≈ 0.345 µM)

Q: What about the MIC ([3]; S. aureus (MRSA) 2171) of the same molecule?
A: 0.5 µg/mL (≈ 0.345 µM)

Q: And the MIC ([3]; S. aureus (MRSA) 2293)?
A: 0.5 µg/mL (≈ 0.345 µM)

Q: And the MIC ([3]; S. aureus (MRSA) 2294)?
A: 0.5 µg/mL (≈ 0.345 µM)

Q: What about the MIC ([3]; S. aureus (MRSA) 2295) of the same molecule?
A: 0.5 µg/mL (≈ 0.345 µM)

Q: And the MIC ([3]; S. aureus (MRSA) 2296)?
A: 0.5 µg/mL (≈ 0.345 µM)

Q: And the MIC ([3]; S. aureus (MRSA) 2297)?
A: 1 µg/mL (≈ 0.69 µM)

Q: What about the MIC ([3]; S. aureus (MRSA) 3880) of the same molecule?
A: 0.5 µg/mL (≈ 0.345 µM)

Q: What about the MIC ([3]; S. aureus (MRSA) 5373) of the same molecule?
A: 0.5 µg/mL (≈ 0.345 µM)

Q: And the MIC ([3]; S. aureus (MRSA) 5666)?
A: 0.5 µg/mL (≈ 0.345 µM)

Q: And the MIC ([3]; S. aureus (MRSA) 5702)?
A: 0.5 µg/mL (≈ 0.345 µM)

Q: What about the MIC ([3]; S. aureus (MRSA) 5999) of the same molecule?
A: 0.5 µg/mL (≈ 0.345 µM)

Q: What about the MIC ([3]; S. aureus (MRSA) 6165) of the same molecule?
A: 1 µg/mL (≈ 0.69 µM)

Q: What about the MIC ([3]; S. aureus (MRSA) 6169) of the same molecule?
A: 0.5 µg/mL (≈ 0.345 µM)

Q: What about the MIC ([3]; S. aureus (MRSA) 6174) of the same molecule?
A: 0.5 µg/mL (≈ 0.345 µM)

Q: And the MIC ([3]; S. aureus (MRSA) 6311)?
A: 1 µg/mL (≈ 0.69 µM)

Q: And the MIC ([3]; S. aureus (MRSA) 6312)?
A: 0.5 µg/mL (≈ 0.345 µM)

Q: And the MIC ([3]; S. aureus (MRSA) 6313)?
A: 0.5 µg/mL (≈ 0.345 µM)

Q: What about the MIC ([3]; S. aureus (MRSA) 6315) of the same molecule?
A: 1 µg/mL (≈ 0.69 µM)

Q: And the MIC ([3]; S. aureus (MRSA) 6320)?
A: 1 µg/mL (≈ 0.69 µM)

Q: And the MIC ([3]; S. aureus (MRSA) 6498)?
A: 0.5 µg/mL (≈ 0.345 µM)

Q: What about the MIC ([3]; S. aureus (MRSA) 6501) of the same molecule?
A: 0.5 µg/mL (≈ 0.345 µM)

Q: And the MIC ([3]; S. aureus (MRSA) 6505)?
A: 0.5 µg/mL (≈ 0.345 µM)

Q: What about the MIC ([3]; S. aureus (MRSA) 6506) of the same molecule?
A: 0.5 µg/mL (≈ 0.345 µM)

Q: And the MIC ([3]; S. aureus (MRSA) NRS382/2119)?
A: 1 µg/mL (≈ 0.69 µM)

Q: And the MIC ([3]; S. aureus (MRSA) NRS383/2120)?
A: 0.5 µg/mL (≈ 0.345 µM)

Q: What about the MIC ([3]; S. aureus (MRSA) NRS384/2011) of the same molecule?
A: 0.5 µg/mL (≈ 0.345 µM)

Q: And the “number of strains tested with MIC not ≤ 2 μg/mL” value [4]?
A: 37
